This experiment addresses T1, C-terminal GST-tagged, recombinant, human IGF-1R, amino acids 954-1367 (Homo sapiens, UniProt P08069).
T1 construct: human IGF-1R, amino acids 954-1367 expressed by baculovirus in Sf21 cells; GST (C); purchased Cell Signaling Technology; host or cells: baculovirus in Sf21 cells
The experiment is described as follows: IGF-1R homogenous time-resolved fluorescence (HTRF) in vitro kinase assay. The conditions noted are these: IGF-1R kinase, ATP 50 μM final, biotinylated peptide substrate 0.5 μM, 60 minutes at room temperature. Type of experiment: biochemical. As to the method: IGF-1R kinase activity was assayed by a homogenous time-resolved fluorescence (HTRF) in vitro kinase assay (Mathis, G., HTRF(R) Technology. J Biomol Screen, 1999. 4(6): p. 309-314). Specifically, 10 μL C-terminal GST-tagged, recombinant, human IGF-1R, amino acids 954-1367 expressed by baculovirus in Sf21 cells (Cell Signaling Technology) was mixed with 10 μL inhibitor (various concentrations, 2% final DMSO) and 10 μL of ATP (50 μM final concentration) in reaction buffer (50 mM HEPES, pH 7.5, 10 mM MgCl2, 2 mM MnCl2, 0.1% BSA and 1 mM DTT, 40 μL final volume). The reaction was initiated by addition of 10 μL of biotinylated peptide substrate (Biotin-Ahx-[…], 0.5 μM final concentration) in a black 384-well plate (Packard). After 60 minutes incubation at room temperature, the reaction was quenched by addition of 60 μL stop/revelation buffer to give 30 mM EDTA, 1 μg/mL streptavidin-APC (Prozyme), 50 ng/mL anti-phosphotyrosine mAb PT66-K Europium Cryptate, 30 mM HEPES, pH 7.5, 120 mM KF, 0.005% Tween-20, 0.05% BSA). The quenched reaction was allowed to stand at room temperature for 1 hour and then read in a time-resolved fluorescence detector (Envision, Perkin Elmer) at 615 nm and 665 nm simultaneously. The ratio between the signal of 615 nm and 665 nm was used in the calculation of the IC50.
On the technique in general: Time-resolved FRET reads energy transfer from a long-lived donor to a nearby acceptor.

T1 sequence (P08069 954-1367): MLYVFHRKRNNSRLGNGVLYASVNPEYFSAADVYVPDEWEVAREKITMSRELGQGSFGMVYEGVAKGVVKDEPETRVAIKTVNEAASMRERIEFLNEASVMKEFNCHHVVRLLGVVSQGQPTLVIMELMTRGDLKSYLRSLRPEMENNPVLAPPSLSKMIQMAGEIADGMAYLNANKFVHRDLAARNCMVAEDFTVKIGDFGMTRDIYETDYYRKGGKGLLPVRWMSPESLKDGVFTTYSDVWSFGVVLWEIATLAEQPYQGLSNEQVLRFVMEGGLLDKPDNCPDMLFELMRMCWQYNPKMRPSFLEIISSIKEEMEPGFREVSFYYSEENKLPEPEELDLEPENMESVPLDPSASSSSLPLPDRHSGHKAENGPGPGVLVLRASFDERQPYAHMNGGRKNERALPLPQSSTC

Regarding `COc1cc(N2CCOCC2)ccc1Nc1nccc(-c2c(-c3ccc4nc(-c5ccccc5)[nH]c4c3)nc3ccccn23)n1` [Example 27, N-(2-methoxy-4-morpholin-4-ylphenyl)-4-[2-(2-phenyl-1H-benzimidazol-6-yl)imidazo[1,2-a]pyridin-3-yl]pyrimidin-2-amine], the IC50 (in general, the concentration that inhibits the measured activity by half) was in the range of 0.01 to 0.05 µM.

Turning to `O=c1[nH]cccc1Nc1nccc(-c2c(-c3ccc4[nH]c(Cc5ccccc5)nc4c3)nc3ccccn23)n1` [Example 29, 3-({4-[2-(2-benzyl-1H-benzimidazol-5-yl)imidazo[1,2-a]pyridin-3-yl]pyrimidin-2-yl}amino)pyridin-2(1H)-one], the IC50 lay within 0.101 to 0.5 µM.

For the molecule `COc1cc(N2CCC(N(C)C)CC2)ccc1Nc1nccc(-c2c(-c3ccc4nc(Cc5ccccc5)[nH]c4c3)nc3sccn23)n1` [Example 30, 4-[6-(2-benzyl-1H-benzimidazol-6-yl)imidazo[2,1-b][1,3]thiazol-5-yl]-N-{4-[4-(dimethylamino)piperidin-1-yl]-2-methoxyphenyl}pyrimidin-2-amine], the IC50 is less than 0.01 µM.

As to `COc1cc(N(C)C)ccc1Nc1nccc(-c2c(-c3ccc4nc(Cc5ccccc5)[nH]c4c3)nc3sccn23)n1` [Example 31, N^1-{4-[6-(2-benzyl-1H-benzimidazol-6-yl)imidazo[2,1-b][1,3]thiazol-5-yl]pyrimidin-2-yl}-2-methoxy-N^4,N^4-dimethylbenzene-1,4-diamine], the IC50 fell in the range of 0.01 to 0.05 µM.

For `COc1cc(Cl)ccc1Nc1nccc(-c2c(-c3ccc4nc(Cc5ccccc5)[nH]c4c3)nc3ccccn23)n1` [Example 32, 4-[2-(2-benzyl-1H-benzimidazol-6-yl)imidazo[1,2-a]pyridin-3-yl]-N-(4-chloro-2-methoxyphenyl)pyrimidin-2-amine], the IC50 was 0.101 to 0.5 µM.

Regarding `COc1cc(N(C)C)ccc1Nc1nccc(-c2c(-c3ccc4nc(Cc5ccccc5Cl)[nH]c4c3)nc3sccn23)n1` [Example 33, N^1-(4-{6-[2-(2-chlorobenzyl)-1H-benzimidazol-6-yl]imidazo[2,1-b][1,3]thiazol-5-yl}pyrimidin-2-yl)-2-methoxy-N^4,N^4-dimethylbenzene-1,4-diamine], the IC50 was in the range of 0.01 to 0.05 µM.

Regarding `COc1ccccc1Cc1nc2ccc(-c3nc4sccn4c3-c3ccnc(Nc4ccc(N(C)C)cc4OC)n3)cc2[nH]1` [Example 34, 2-methoxy-N^1-(4-{6-[2-(2-methoxybenzyl)-1H-benzimidazol-6-yl]imidazo[2,1-b][1,3]thiazol-5-yl}pyrimidin-2-yl)-N^4,N^4-dimethylbenzene-1,4-diamine], the IC50 was 0.01 to 0.05 µM.

As to `OCCn1cc(Nc2nccc(-c3c(-c4ccc5[nH]c(-c6ccccc6)nc5c4)nc4ccccn34)n2)cn1` [Example 36, 2-[4-({4-[2(2-phenyl-1H-benzimidazol-5-yl)imidazo[1,2-a]pyridin-3-yl]pyrimidin-2-yl}amino)-1H-pyrazol-1-yl]ethanol], the IC50 was 0.01 to 0.05 µM.

Take `OCCn1cc(Nc2nccc(-c3c(-c4ccc5[nH]c(Cc6ccccc6)nc5c4)nc4ccccn34)n2)cn1` [Example 37, 2-[4-({4-[2(2-benzyl-1H-benzimidazol-5-yl)imidazo[1,2-a]pyridin-3-yl]pyrimidin-2-yl}amino)-1H-pyrazol-1-yl]ethanol]: the IC50 fell in the range of 0.01 to 0.05 µM.

On to `Fc1ccc(Nc2nccc(-c3c(-c4ccc5nc(-c6ccccc6)[nH]c5c4)nc4ccccn34)n2)cc1` [Example 38, N-(4-fluorophenyl)-4-[2-(2-phenyl-1H-benzimidazol-6-yl)imidazo[1,2-a]pyridin-3-yl]pyrimidin-2-amine], for which the IC50 is 0.101 to 0.5 µM.

Regarding `Fc1ccc(Nc2nccc(-c3c(-c4ccc5[nH]c(Cc6ccccc6)nc5c4)nc4ccccn34)n2)cc1` [Example 39, 4-[2-(2-benzyl-1H-benzimidazol-5-yl)imidazo[1,2-a]pyridin-3-yl]-N-(4-fluorophenyl)pyrimidin-2-amine], the IC50 lay within 0.051 to 0.1 µM.
